As usually defined, the Cmax is the highest concentration seen after dosing. As a reminder, the Tmax is the time at which the peak concentration occurs. What is called AUC(0-inf) is the area under the concentration-time curve extrapolated to infinity. As usually defined, the AUC(0-t) is exposure summed from dosing to a finite time, without extrapolation to infinity. A word on the MRT inf: it is the average time that molecules of a dose stay in the body. Usually half-life stands for the time in which the quantity being followed falls by half.

Molecules are shown by their SMILES. Like-named read-outs stand apart in the source and are kept apart here.

The nature of series [1]: High temperature test (stability). The format is physicochemical. As to conditions: 60° C.; for purity: HPLC. The protocol: High temperature test: an appropriate amount of sample was put in a weighing bottle in the form of a thin layer of ≤5 mm, under a temperature of 60° C. for 10 days. Samples were took at fifth and tenth day, appearance was observed and purity was detected by HPLC.

A short description of series [2]: High humidity test (stability). The format is physicochemical. The conditions noted are these: 25° C., RH 90%±5%, HPLC. The protocol:
High humidity test: an appropriate amount of sample was put in a weighing bottle in the form of a thin layer of ≤5 mm, under a temperature of 25° C. and RH 90%±5% for 10 days. Samples were took at fifth and tenth day, appearance was observed and purity was detected by HPLC.

For series [3] the following is noted: dog, in vivo, po, 5 mg/kg.
Method: (§1) (3-(4-(dihexylamino)-3-fluorophenyl)-2,6-dimethylpyrimidin-4(3H)-one), crystalline forms of the various salts were filled into capsules, which were administered orally.
(§2) Blood samples were collected at 0.25, 0.5, 1.0, 2.0, 4.0, 6.0, 8.0, 12 and 24 hours after the administration. Standard curve was plotted based on concentrations of the samples in a suitable range, the concentrations of test compounds in plasma samples were determined by using Agilent 6430 LC-MS/MS under MRM mode, and quantitative analysis was performed. Pharmacokinetic parameters were calculated according to drug concentration-time curve using a noncompartmental method by WinNonLin 6.3 software.
A short description of series [4]: Pharmacokinetics experiments of the salts, oral capsules in Beagle dogs. The conditions noted are these: 5 mg/kg.
Method: as §1, §2

On to `CCCCCCN(CCCCCC)c1ccc(-n2c(C)nc(C)cc2=O)cc1F.O=C(O)/C=C\C(=O)O` [Example 8, 3-(4-(dihexylamino)-3-fluorophenyl)-2,6-dimethylpyrimidin-4(3H)-one Maleate Crystal-I], for which, in series [1] (0 d), the appearance result is “white solid” and the purity stood at 99.53%. In series [1] (5 d), this molecule displayed a purity of 99.49%. The same molecule returned a purity in series [1] (10 d) of 99.05%. The purity in series [2] (0 d) was 99.53%. The purity in series [2] (5 d) was determined as 99.51%. This molecule also gave a purity in series [2] (10 d) of 99.49%. In series [3], this molecule showed an AUCINF of 38337.53 ng·h/mL, an AUClast of 5859.22 ng·h/mL, a Cmax of 588 ng/mL and an MRTINF of 155.21 h. Moreover, in series [3], the T1/2 is recorded as 110.28 h, the time of peak concentration (Tmax) was 2 h and the “exposure compared to free compound (I)” value is “relative higher exposure”.

`CCCCCCN(CCCCCC)c1ccc(-n2c(C)nc(C)cc2=O)cc1F.Cl` [Example 1, 3-(4-(dihexylamino)-3-fluorophenyl)-2,6-dimethylpyrimidin-4(3H)-one Hydrochloride Crystal-I] had a purity in series [1] (0 d) of 99.81%. Further, the purity in series [1] (5 d) was determined as 99.80%. In addition, the purity in series [1] (10 d) is listed as 99.79%. In series [2] (0 d), this molecule registered a purity of 99.81%. Moreover, in series [2] (5 d), the purity is recorded as 99.79%. This molecule also registered a purity in series [2] (10 d) of 99.80%. Moreover, in series [4] (male Beagle dogs, oral capsule), the AUCINF was 6310 ng·h/mL, the AUClast is 4470 ng·h/mL, the maximum concentration (Cmax) was determined as 364 ng/mL and the MRTINF came out at 41.9 h. For the same molecule, in series [4] (male Beagle dogs, oral capsule), the T1/2 came out at 34.5 h and the time to peak (Tmax) is recorded as 2.33 h.

In turn, `CCCCCCN(CCCCCC)c1ccc(-n2c(C)nc(C)cc2=O)cc1F.Cc1ccc(S(=O)(=O)O)cc1` [Example 6, 3-(4-(dihexylamino)-3-fluorophenyl)-2,6-dimethylpyrimidin-4(3H)-one Tosilate Crystal-I] came in with a purity in series [1] (0 d) of 99.83%. For the same molecule, in series [1] (5 d), the purity worked out at 99.81%. This molecule displayed a purity in series [1] (10 d) of 99.81%. The molecule also displayed a purity in series [2] (0 d) of 99.83%. The molecule further returned a purity in series [2] (5 d) of 99.80%. The molecule further gave a purity in series [2] (10 d) of 99.83%. In addition, in series [4] (male Beagle dogs, oral capsule), the AUCINF was found to be 3010 ng·h/mL, the AUClast was determined as 2720 ng·h/mL, the maximum concentration (Cmax) amounted to 329 ng/mL and the MRTINF is recorded as 17.5 h. In series [4] (male Beagle dogs, oral capsule), the T1/2 amounted to 17.5 h and the Tmax turned out to be 2 h. Moreover, the “exposure compared to free compound (I)” value in series [4] (male Beagle dogs, oral capsule, conclusion from table 1) is “relative higher exposure”.

On to `CCCCCCN(CCCCCC)c1ccc(-n2c(C)nc(C)cc2=O)cc1F` [Compound (I), 3-(4-(dihexylamino)-3-fluorophenyl)-2,6-dimethylpyrimidin-4(3H)-one], for which, in series [4] (male, Beagle, dog, plasma, po), the AUC(0-inf) was 2320 ng·h/mL, the AUC(0-t) amounted to 1730 ng·h/mL, the highest concentration (Cmax) was determined as 244 ng/mL and the MRT inf was determined as 23.3 h. Further, in series [4] (male, Beagle, dog, plasma, po), the time of peak concentration (Tmax) worked out at 1.17 h and the half-life was 13.8 h.

As to `CCCCCCN(CCCCCC)c1ccc(-n2c(C)nc(C)cc2=O)cc1F.Cl` [Example 2, 3-(4-(dihexylamino)-3-fluorophenyl)-2,6-dimethylpyrimidin-4(3H)-one Hydrochloride Crystal-II], the purity in series [1] (0 d) was determined as 99.85%. The same molecule registered a purity in series [1] (5 d) of 99.86%. The molecule also registered a purity in series [1] (10 d) of 99.83%. For the same molecule, in series [2] (0 d), the purity came out at 99.85%. For the same molecule, the purity in series [2] (5 d) worked out at 99.86%. In series [2] (10 d), this molecule showed a purity of 99.82%. In series [3], this molecule had an AUCINF of 2820 ng·h/mL, an AUClast of 2940 ng·h/mL, a Cmax of 485 ng/mL and an MRTINF of 9.43 h. Further, in series [3], the T1/2 is given as 9.54 h, the Tmax came to 8.83 h and the “exposure compared to free compound (I)” value was “relative higher exposure”.

The values above are taken from US10647682B2, “Salts of 2,6-dimethylpyrimidone derivatives and uses thereof” (SUNSHINE LAKE PHARMA CO., LTD., priority 2016, dated 2020).
